What was measured:
[1] = test system: CfEcR; test: Comparison of switches in the mammalian cell lines tested (Tables 1-4); assay type: cell-based, Choristoneura fumiferana; conditions: see Tables 1-4
Description: Several commercially available lipofactors as well as electroporation methods were evaluated and the best conditions for transfection of each cell line were developed. CHO, NIH3T3, 293 and CV1 cells were grown to 60% confluency. DNAs corresponding, to the various switch constructs outlined in Examples 1.1 through 1.10 were transfected into CHO cells, NIH3T3 cells, 293 cells, or CV1 cells as follows.
Cells were harvested 24-48 hr after adding ligands. […] Twenty μl of lysate was assayed.

[2] = test system: GAL4EcR + VP16RXR; test: Transactivation of reporter genes through switch 1.1 in 3T3 cells; conditions: GAL4CfEcRDEF/VP16MmRXRDEF (switch 1.1), 1.0 μM ligand, 48 hr
From the text: (§1) In various cellular backgrounds, including mammalian cells, insect ecdysone receptor (EcR) heterodimerizes with retinoid X receptor (RXR) and, upon binding of ligand, transactivates genes under the control of ecdysone response elements. Applicants constructed several EcR-based gene expression cassettes based on the spruce budworm Choristoneura fumiferana EcR (“CfEcR”; full length polynucleotide and amino acid sequences are set forth in SEQ ID NO: 49 and SEQ ID NO: 50, respectively), C. fumiferana ultraspiracle (“CfUSP”; full length polynucleotide and amino acid sequences are set forth in SEQ ID NO: 51 and SEQ ID NO: 52, respectively), and mouse Mus musculus RXRα (MmRXRα; full length polynucleotide and amino acid sequences are set forth in SEQ ID NO: 53 and SEQ ID NO: 54, respectively). The prepared receptor constructs comprise a ligand binding domain of EcR and of RXR or of USP; a DNA binding domain of GAL4 or of EcR; and an activation domain of VP16. The reporter constructs include a reporter gene, luciferase or LacZ, operably linked to a synthetic promoter construct that comprises either GAL4 or EcR/USP binding sites (response elements). Various combinations of these receptor and reporter constructs were cotransfected into CHO, NIH3T3, CV1 and 293 cells. […] Reporter gene expression activities were assayed at 24 hr or 48 hr after ligand addition.
(§2) The same procedures described for CHO cells were followed for 3T3 cells as well with two modifications. The cells were plated when they reached 50% confluency. 125,000 or 50,000 or 25,000 cells were plated per well of 6- or 12- or 24-well plates respectively. The GAl4EcR/VP16RXR and reporter vector DNAs were transfected into NIH3T3 cells, the transfected cells were grown in medium containing PonA, MurA, N-(2-ethyl-3-methoxybenzoyl)-N′-(3,5-dimethylbenzoyl)-N′-t-butylhydrazine, or N-(3,4-(1,2-ethylenedioxy)-2-methylbenzoyl)-N′-(3,5-dimethylbenzoyl)-N′-tert-butylhydrazine for 48 hr. The ligand treatments were performed as described in the CHO cell section above.
(§3) Cells were harvested 24-48 hr after adding ligands. 125, 250, or 500 μl of passive lysis buffer (part of Dual-luciferase™ reporter assay system from Promega Corporation) were added to each well of 24- or 12- or […] respectively. The plates were placed on a rotary shaker for 15 min. Twenty μl of lysate was assayed. Luciferase activity was measured using Dual-luciferase™ reporter assay system from Promega Corporation following the manufacturer's instructions. β-Galactosidase was measured using Galacto-Star™ assay kit from TROPIX following the manufacturer's instructions. All luciferase and β-galactosidase activities were normalized using Renilla luciferase as a standard. Fold activities were calculated by dividing normalized relative light units (“RLU”) in ligand treated cells with normalized RLU in DMSO treated cells (untreated control).

[3] = test system: GAL4RXR + VP16CfEcR; test: Transactivation of reporter genes through switch 1.3 in 3T3 cells; conditions: GAL4MmRXRDEF/VP16CfEcRCDEF (switch 1.3), 1.0 μM ligand
From the text: as §1
MmRXRDEF (SEQ ID NO: 22) was fused to a GAL4DNABD (SEQ ID NO: 41) and CfEcRCDEF (SEQ ID NO: 1) was fused to a VP16AD (SEQ ED NO: 45).
as §2, §3

[4] = test system: CfEcR/RXR-based switch; test: Luciferase reporter assay of truncated CfEcR and MmRXR receptor pairs in NIH3T3 cells (Example 2); assay type: cell-based, Choristoneura fumiferana; conditions: NIH3T3 cells, 0, 1, 5 or 25 uM ligand, 48 hr; FIGS. 11-14
Description: Briefly, polynucleotides encoding EcR or RXR receptors were truncated at the junctions of A/B, C, D, E and F domains and fused to either a GAL4 DNA binding domain encoding polynucleotide (SEQ ID NO: 41) for CfEcR, or a VP16 activation domain encoding polynucleotide (SEQ ID NO: 45) for MmRXR as described in Example 1. The resulting receptor truncation/fusion polypeptides were assayed in NIH3T3 cells. Plasmid pFRLUC (Stratagene) encoding a luciferase polypeptide was used as a reporter gene construct and pTKRL (Promega) encoding a Renilla luciferase polypeptide under the control of the constitutive TK promoter was used to normalize the transfections as described above. The analysis was performed in triplicates and mean luciferase counts were determined as described above.
Gene expression cassettes comprising polynucleotides encoding either full length or truncated CfEcR polypeptides fused to a GALA. […] The cells were harvested, lysed and luciferase reporter activity was measured in the cell lysates. […]

Compound	potency as activators of CfEcR as compared to DmEcR [1]	Mean Fold Induction at 1.0 μM Concentration [2] [fold]	Mean Fold Induction at 1.0 μM Concentration [3] [fold]	sensitivity of the EcR/RXR switch to the ligand [4]
Cc1cc(C)cc(C(=O)N(NC(=O)c2ccc3c(c2C)OCCO3)C(C)(C)C)c1 [N-(3,4-(1,2-ethylenedioxy)-2-methylbenzoyl)-N′-(3,5-dimethylbenzoyl)-N′-tert-butylhydrazine]	more potent activators of CfEcR	601	54	–
CC(C)CC[C@@H](O)[C@](C)(O)[C@H]1CC[C@@]2(O)C3=CC(=O)[C@]4(O)C[C@@H](O)[C@@H](O)C[C@]4(C)[C@H]3[C@H](O)C[C@]12C [Muristerone A, reference compound]	–	1.0	1.0	–
CC(C)CC[C@@H](O)[C@](C)(O)[C@H]1CC[C@@]2(O)C3=CC(=O)[C@@H]4C[C@@H](O)[C@@H](O)C[C@]4(C)[C@H]3CC[C@]12C [Ponasterone A, reference compound]	–	1.0	1.0	insensitive
